# From article PMC12396291, “DNA-encoded library screening uncovers potent DNMT2 inhibitors targeting a cryptic allosteric binding site” (iScience, 2025)
# “Also recorded” adds a separate entry of the source.
# Biological target: T1, DNMT2 (Homo sapiens, UniProt O14717)
# T1 construct: Recombinant human DNMT2 (full-length); His-tag; made in house; host or cells: E. coli
# T1 sequence (O14717 1-391): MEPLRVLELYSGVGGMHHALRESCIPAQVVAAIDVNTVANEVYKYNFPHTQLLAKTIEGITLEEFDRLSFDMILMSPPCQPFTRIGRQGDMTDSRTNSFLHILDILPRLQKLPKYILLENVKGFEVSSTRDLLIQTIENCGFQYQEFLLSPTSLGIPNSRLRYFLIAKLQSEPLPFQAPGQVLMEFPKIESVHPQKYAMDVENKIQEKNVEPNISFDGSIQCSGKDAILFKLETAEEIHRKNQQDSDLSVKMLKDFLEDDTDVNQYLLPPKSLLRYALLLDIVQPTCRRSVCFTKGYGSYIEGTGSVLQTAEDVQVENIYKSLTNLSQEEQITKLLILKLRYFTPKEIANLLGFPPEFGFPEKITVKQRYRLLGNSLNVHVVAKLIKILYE
# Experiment: MST displacement assay with fluorescent FTAD probe
# Format: binding
# Parameters: Fnorm (MST screening): unit not given here
# Conditions: ligand 100 μM, FTAD probe
# Procedure: Screening for ligand binding and evaluation of dose-response affinity profiles was performed via microscale thermophoresis (MST) as described previously.[42] The measurements were conducted with a Nanotemper Technologies Monolith NT.115 device. All samples were measured in Monolith standard capillaries at 25 °C. The acquisition mode was set to “Nano-Blue” with an excitation power of 30% and a medium MST power, while the system was controlled using the software MO.Control (version 1.6.1) and for evaluation MO.Affinity Analysis (version 2.3) was used. The samples contained 2 μM DNMT2, 100 nM FTAD (5-FAM-triazolyl-adenosyl-Dab) probe, and 1.3% DMSO in MST buffer (50 mM HEPES, 150 mM NaCl, 1 mM dithiothreitol (DTT), 0.1% PEG-8000, 0.05% polysorbate-20, pH 7.4).[42] All compounds were employed at a final concentration of 100 μM for the initial ligand screening.
Compound,Fnorm (% displ.): FTAD displacement [%],Fnorm (MST screening)
CCc1ccc(C(=O)NCC2(C(=O)N[C@@H](CC(=O)NCC(=O)O)Cc3c[nH]c4ccccc34)CC2)cc1 [Compound 9],46,907.7
CCc1ccc(C(=O)NCC2(C(=O)N[C@@H](CC(=O)NCC(N)=O)Cc3c[nH]c4ccccc34)CC2)cc1 [Compound 10],40,903.3
Cc1ccc(C(=O)NCC2(C(=O)N[C@@H](CC(=O)NCC(N)=O)Cc3ccccc3)CC2)cc1 [Compound 11],24,891.2
CCCc1ccc(C(=O)NCC2(C(=O)N[C@@H](CC(=O)NCC(N)=O)Cc3ccccc3)CC2)cc1 [Compound 12],23,890.4
COc1ccc(C(=O)NCC2(C(=O)N[C@@H](CC(=O)NCC(N)=O)Cc3ccccc3)CC2)cc1 [Compound 13],32,897.7
CCc1ccc(C(=O)NCC2(C(=O)N[C@@H](CC(=O)NCC(N)=O)Cc3ccc(O)cc3)CC2)cc1 [Compound 15],5,862.9
CCc1ccc(C(=O)NCC2(C(=O)N[C@@H](CC(=O)NCC(N)=O)Cc3ccc(Br)cc3)CC2)cc1 [Compound 17],71,924.6
NC(=O)CNC(=O)C[C@@H](Cc1ccccc1)NC(=O)C1(CNC(=O)c2ccccc2)CC1 [Compound 18],7,868.2
C#Cc1ccc(C(=O)NCC2(C(=O)N[C@@H](CC(=O)NCC(N)=O)Cc3ccccc3)CC2)cc1 [Compound 19],8,871.4
NC(=O)CNC(=O)C[C@@H](Cc1ccccc1)NC(=O)C1(CNC(=O)c2ccc(C3(C(F)(F)F)N=N3)cc2)CC1 [Compound 20],11,876.5
CCc1ccc(C(=O)NCC2(C(=O)N[C@@H](CC(=O)NCC(N)=O)Cc3ccccc3)CC2)c(C)c1 [Compound 21],5,862.4
NC(=O)CNC(=O)C[C@@H](Cc1ccccc1)NC(=O)C1(CNC(=O)C2CCCCC2)CC1 [Compound 22],5,864.4
CC(=O)NCC1(C(=O)N[C@@H](CC(=O)NCC(N)=O)Cc2ccccc2)CC1 [Compound 23],5,864.4
CCc1ccc(C(=O)NC[C@H](N)C(=O)N[C@@H](CC(=O)NCC(N)=O)Cc2c[nH]c3ccccc23)cc1 [Compound 24],4,860.8
CCc1ccc(C(=O)NC[C@H](C)C(=O)N[C@@H](CC(=O)NCC(N)=O)Cc2c[nH]c3ccccc23)cc1 [Compound 25],3,855.5
CCc1ccc(C(=O)NC2(C(=O)N[C@@H](CC(=O)NCC(N)=O)Cc3c[nH]c4ccccc34)CC2)cc1 [Compound 26],5,861.9
CCc1ccc(C(=O)NCCC(=O)N[C@@H](CC(=O)NCC(N)=O)Cc2c[nH]c3ccccc23)cc1 [Compound 27],5,863.8
CCc1ccc(C(=O)NCC2(C(=O)N[C@@H](CC(=O)NCC(N)=O)Cc3ccccc3)C[C@H]2C(F)(F)F)cc1 (stereo partly shown) [Compound 28],8,871.9

Compound,Fnorm (% displ.): FTAD displacement [%],Fnorm (MST screening)
CCc1ccc(C(=O)NCC2(C(=O)N[C@@H](CC(=O)NCC(N)=O)Cc3ccccc3)C[C@H]2S(C)(=O)=O)cc1 (stereo partly shown) [Compound 29],9,872.3
CCc1ccc(C(=O)NCC2(C(=O)N[C@H](CC(=O)NCC(N)=O)Cc3c[nH]c4ccccc34)CC2)cc1 [Compound 31],4,857.0
CCc1ccc(C(=O)NCC2(C(=O)N[C@@H](CC(=O)NCC(N)=O)Cc3csc4ccccc34)CC2)cc1 [Compound 32],3,856.7
CCc1ccc(C(=O)NCC2(C(=O)N[C@@H](CC(=O)NCC(N)=O)Cc3ccc(I)cc3)CC2)cc1 [Compound 33],18,885.6
CCc1ccc(C(=O)NCC2(C(=O)N3Cc4ccccc4C[C@@H]3CC(=O)NCC(N)=O)CC2)cc1 [Compound 35],5,861.5
CCc1ccc(C(=O)NCC2(C(=O)N[C@@H](CC(=O)NCC(N)=O)Cc3ccc4ccccc4c3)CC2)cc1 [Compound 36],5,861.7
CCc1ccc(C(=O)NCC2(C(=O)N[C@@H](CC(=O)NCC(N)=O)C(=O)O)CC2)cc1 [Compound 37],4,858.6
CCc1ccc(C(=O)NCC2(C(=O)NCCC(=O)NCC(N)=O)CC2)cc1 [Compound 38],4,859.4
CCc1ccc(C(=O)NCC2(C(=O)N[C@@H](CC(=O)N[C@@H](C)C(N)=O)Cc3ccccc3)CC2)cc1 [Compound 39],8,871.4
CCc1ccc(C(=O)NCC2(C(=O)N[C@@H](CC(=O)N[C@H](C)C(N)=O)Cc3ccccc3)CC2)cc1 [Compound 40],8,870.1
CCc1ccc(C(=O)NCC2(C(=O)N[C@@H](CC(=O)N[C@@H](C(N)=O)[C@@H](C)O)Cc3c[nH]c4ccccc34)CC2)cc1 [Compound 41],6,865.3
CCc1ccc(C(=O)NCC2(C(=O)N[C@@H](CC(=O)N[C@@H](Cc3ccccc3)C(N)=O)Cc3ccccc3)CC2)cc1 [Compound 42],4,858.8
CCc1ccc(C(=O)NCC2(C(=O)N[C@@H](CC(=O)NCCC(N)=O)Cc3ccccc3)CC2)cc1 [Compound 43],10,874.7
CCc1ccc(C(=O)N(C)CC2(C(=O)NC(CC(=O)NCC(N)=O)Cc3ccccc3)CC2)cc1 (stereo not shown) [Compound 44],7,869.7
CCc1ccc(C(=O)NCC2(C(=O)N(C)[C@@H](CC(=O)NCC(N)=O)Cc3ccccc3)CC2)cc1 [Compound 45],5,862.6
CCc1ccc(C(=O)NCC2(C(=O)N[C@@H](CC(=O)N(C)CC(N)=O)Cc3ccccc3)CC2)cc1 [Compound 46],7,868.4
CCc1ccc(C(=O)NCC2(C(=O)N[C@@H](CC(=O)NCC(=O)N(C)C)Cc3ccccc3)CC2)cc1 [Compound 47],36,901.0
CCc1ccc(C(=O)NCC2(C(=O)N[C@@H](CC(=O)NCC(=O)NCCOCCOCCOCCOC)Cc3ccccc3)CC2)cc1 [Compound 48],27,894.1

# Tested on: not listed separately
# Experiment: Parallel artificial membrane permeation assay (PAMPA)
# Format: in vitro ADME
# Conditions: 7 h incubation, duplicates
# Procedure: To determine the passive permeability of selected DNMT2 ligands, a parallel artificial membrane permeation assay (PAMPA) was performed as described previously.[68] The experiment was performed in duplicates with Sigma-Aldrich MAIPNTR10 donor plates with 5 μL of an artificial membrane (1% w/v L-α-phosphatidylcholine in n-dodecane) per well. After incubation for 7 h, the acceptor solutions were evaluated by LC/MS (HP Agilent 1100 Series). The peak areas in the UV chromatogram (λ = 210 nm) were used to calculate the areas under the curve (AUCs).
row,Compound,Papp (PAMPA)
1,CCc1ccc(C(=O)NCC2(C(=O)N[C@@H](CC(=O)NCC(N)=O)Cc3c[nH]c4ccccc34)CC2)cc1 [Compound 10],failed to pass through the artificial membrane; also recorded: below detection limit
2,CCc1ccc(C(=O)NCC2(C(=O)N[C@@H](CC(=O)NCC(N)=O)Cc3ccccc3)CC2)cc1 [Compound 14],failed to pass through the artificial membrane; also recorded: below detection limit
3,CCc1ccc(C(=O)NCC2(C(=O)N[C@@H](CC(=O)NCC(=O)N(C)C)Cc3ccccc3)CC2)cc1 [Compound 47],failed to pass through the artificial membrane; also recorded: below detection limit
4,CCc1ccc(C(=O)NCC2(C(=O)N[C@@H](CC(=O)NCC(=O)O)Cc3ccccc3)CC2)cc1 [Compound 54],failed to pass through the artificial membrane; also recorded: below detection limit
